Laboratory results taken from patent publication US9650390B2, “Water-soluble taxane derivatives and uses thereof” (priority 2014, dated 2017).

Key:
[1] = tested on: human ovarian cancer SK-OV-3; conditions: 24 mg/kg, D0-4 IV; for Body weight change (%) D4: nude mice; for T/C (%) D22 / Tumor volume (mm^3) (D22) / Tumor volume (mm^3) (D0) / Tumor inhibitory percent (%) D22: SK-OV-3 xenograft in nude mice; for Tumor volume (mm^3) (D0): baseline at grouping (D0); for Tumor inhibitory percent (%) D22: P = 0.000 vs control
Text: Purpose: to evaluate and compare the inhibitory activity of the water soluble paclitaxel derivatives, paclitaxel and Abraxane® on subcutaneously xenografted tumor of human ovarian cancer SK-OV-3 in nude mice.
Human ovarian cancer SK-OV-3 cells were subcutaneously inoculated to nude mice. After the tumor volume reached 100-150 mm^3, the animals were randomly divided into groups (D0), and administered with the water soluble paclitaxel derivatives of the following formula, paclitaxel, and Abraxane®, respectively once per day for 5 days. The tumor volume was measured 2-3 times per week, the animals were weighed and the data were recorded until day 22 (D22) after grouping.
(§1) The tumor volume (V) was calculated according to the equation: V=½×a×b^2, wherein a and b represent the length and the width, respectively.
T/C (%)=(T−T0)/(C−C0)×100, wherein T and C represent the tumor volume at the end of the experiment, and T0 and C0 represent the tumor volume at the beginning of the experiment.

[2] = tested on: human prostate cancer PC-3; assay: Inhibitory activity of cabazitaxel derivatives on subcutaneously xenografted tumor PC-3 in nude mice; conditions: D0 IV; for Weight change (%) D6: nude mice; for T/C (%) D20 / Tumor volume (mm^3) (D20) / Tumor inhibitory percent (%) D20 / Tumor volume (mm^3) (D0): PC-3 xenograft in nude mice; for Tumor inhibitory percent (%) D20: P = 0.000 vs control; for Tumor volume (mm^3) (D0): baseline at grouping (D0)
Text: Purpose: to evaluate and compare the inhibitory activity of the water soluble cabazitaxel derivatives and cabazitaxel on subcutaneously xenografted tumor of human prostate cancer PC-3 in nude mice.
Human prostate cancer PC-3 cells were subcutaneously inoculated into nude mice. After the tumor volume reached 100-150 mm^3, the animals were randomly divided into several groups, and administered with the water soluble cabazitaxel derivatives of the following formula and cabazitaxel, respectively once on the same day (D0). The tumor volume was measured 2-3 times per week, the animals were weighed and the data were recorded until day 20 (D20) after grouping.
as §1
T/C (%)=(T−T0)/(C−C0)×100, wherein T and C represent the tumor volume at the end of the experiment; and T0 and C0 represent the tumor volume at the beginning of the experiment.

[3] = In vitro dissociation in blood plasma of rat; type: in vitro ADME, SD rats; conditions: fresh SD rat plasma, 37° C.; for Sampling time/Dissociation percent (%) 2 min: 2 min incubation; for Sampling time/Dissociation percent (%) 5 min: 5 min incubation; for Sampling time/Dissociation percent (%) 10 min: 10 min incubation
Experimental: The obtained water soluble taxane derivatives of the following formulae were formulated as 0.2 mg/ml aqueous solutions. […] After 2 min, 5 min and 10 min of incubation, 0.2 ml of solutions were respectively taken from each of the samples, and added to acetonitrile (0.4 ml) cooled to −20° C. for precipitation of protein.

[4] = In vitro dissociation in blood plasma of rabbit; type: in vitro ADME, New Zealand white rabbits; conditions: fresh New Zealand white rabbit plasma, 37° C.
Experimental: The obtained water soluble taxane derivatives of the following formulae were formulated as 0.2 mg/ml aqueous solutions. […]

Row | SMILES | Body weight change (%) D4 [1] [%] | T/C (%) D22 [1] [%] | Tumor volume (mm^3) (D22) [1] | Tumor volume (mm^3) (D0) [1] | T/C (%) D20 ([2]; 13 mg/kg) [%] | Tumor inhibitory percent (%) D20 ([2]; 13 mg/kg) [%] | further results
1 | CCN(CC)CC[C@H](F)C(=O)O[C@@H](C(=O)O[C@H]1C[C@@]2(O)[C@@H](OC(=O)c3ccccc3)[C@@H]3[C@]4(OC(C)=O)CO[C@@H]4C[C@H](O)[C@@]3(C)C(=O)[C@H](OC(C)=O)C(=C1C)C2(C)C)[C@@H](NC(=O)c1ccccc1)c1ccccc1.O=C(O)/C=C/C(=O)O [Compound C19, 2′-O-[4-N,N-diethylamino-2(S)-fluorobutyryl]paclitaxel fumarate] | −8.1 | −44 | 55.7 ± 10.1 | 133.6 ± 9.4 |  |  | 
2 | CCN(CC)CC[C@@H](F)C(=O)O[C@@H](C(=O)O[C@H]1C[C@@]2(O)[C@@H](OC(=O)c3ccccc3)[C@@H]3[C@]4(OC(C)=O)CO[C@@H]4C[C@H](OC)[C@@]3(C)C(=O)[C@H](OC)C(=C1C)C2(C)C)[C@@H](NC(=O)OC(C)(C)C)c1ccccc1.CS(=O)(=O)O [Compound C33, 2′-O-[4-N,N-diethylamino-2(R)-fluorobutyryl]cabazitaxel methanesulfonate] |  |  |  |  | −50 | 114 | Weight change (%) D6 ([2]; 13 mg/kg): −15.1%; Tumor volume (mm^3) (D20) ([2]; 13 mg/kg): 38.6 ± 13.4 mm^3; Tumor volume (mm^3) (D0) ([2]; 13 mg/kg): 112.0 ± 2.4 mm^3
3 | CCN(C)CC[C@@H](F)C(=O)O[C@@H](C(=O)O[C@H]1C[C@@]2(O)[C@@H](OC(=O)c3ccccc3)[C@@H]3[C@]4(OC(C)=O)CO[C@@H]4C[C@H](OC)[C@@]3(C)C(=O)[C@H](OC)C(=C1C)C2(C)C)[C@@H](NC(=O)OC(C)(C)C)c1ccccc1.O=C(O)/C=C\C(=O)O [Compound C32, 2′-O-[4-N-methyl-N-ethylamino-2(R)-fluorobutyryl]cabazitaxel maleate] |  |  |  |  | −56 | 128 | Weight change (%) D6 ([2]; 13 mg/kg): −14.7%; Tumor volume (mm^3) (D20) ([2]; 13 mg/kg): 35.8 ± 12.7 mm^3; Tumor volume (mm^3) (D0) ([2]; 13 mg/kg): 112.4 ± 3.0 mm^3
4 | CO[C@H]1C(=O)[C@]2(C)[C@@H](OC)C[C@H]3OC[C@@]3(OC(C)=O)[C@H]2[C@H](OC(=O)c2ccccc2)[C@]2(O)C[C@H](OC(=O)[C@H](OC(=O)[C@@H](CCN(C)C)C(F)F)[C@@H](NC(=O)OC(C)(C)C)c3ccccc3)C(C)=C1C2(C)C.Cc1ccc(S(=O)(=O)O)cc1 [Compound C36, 2′-O-[4-N,N-dimethylamino-2(R)-2-difluoromethylbutyryl]cabazitaxel p-toluene sulfonate] |  |  |  |  | −37 | 85 | 
5 | CC(=O)O[C@H]1C(=O)[C@@]2(C)[C@H]([C@H](OC(=O)c3ccccc3)[C@]3(O)C[C@H](OC(=O)[C@H](OC(=O)C(CCN(C)C)C(F)F)[C@@H](NC(=O)c4ccccc4)c4ccccc4)C(C)=C1C3(C)C)[C@]1(OC(C)=O)CO[C@@H]1C[C@@H]2O.Cl (stereo partly drawn) [Compound C22, 2′-O-[4-N,N-dimethylamino-2(R,S)-2-difluoromethylbutyryl]paclitaxel hydrochloride] | −8.4 | −35 | 61.2 ± 13.5 | 133.4 ± 12.6 |  |  | Tumor inhibitory percent (%) D22 [1]: 135%
6 | CO[C@H]1C(=O)[C@]2(C)[C@@H](OC)C[C@H]3OC[C@@]3(OC(C)=O)[C@H]2[C@H](OC(=O)c2ccccc2)[C@]2(O)C[C@H](OC(=O)[C@H](OC(=O)[C@H](F)CCN(C)C(C)C)[C@@H](NC(=O)OC(C)(C)C)c3ccccc3)C(C)=C1C2(C)C.Cl [Compound C34, 2′-O-[4-N-methyl-N-isopropylamino-2(R)-fluorobutyryl]cabazitaxel hydrochloride] |  |  |  |  | −45 | 101 | Tumor volume (mm^3) (D20) ([2]; 13 mg/kg): 42.8 ± 11.9 mm^3; Tumor volume (mm^3) (D0) ([2]; 13 mg/kg): 111.7 ± 3.2 mm^3
7 | CC(=O)O[C@H]1C(=O)[C@@]2(C)[C@H]([C@H](OC(=O)c3ccccc3)[C@]3(O)C[C@H](OC(=O)[C@H](OC(=O)C(F)CCN(C)C)[C@@H](NC(=O)c4ccccc4)c4ccccc4)C(C)=C1C3(C)C)[C@]1(OC(C)=O)CO[C@@H]1C[C@@H]2O.CS(=O)(=O)O (stereo partly drawn) [Compound C3, 2′-O-[4-N,N-dimethylamino-2(R,S)-fluorobutyryl]paclitaxel methanesulfonate] | −6.0 | −64 | 50.6 ± 9.7 |  |  |  | Sampling time/Dissociation percent (%) 2 min [3]: 63.7%; Sampling time/Dissociation percent (%) 5 min [3]: 96.8%; Sampling time/Dissociation percent (%) 10 min [3]: 100%; Sampling time/Dissociation percent (%) 2 min [4]: 76.5%; Sampling time/Dissociation percent (%) 5 min [4]: 94.6%; Sampling time/Dissociation percent (%) 10 min [4]: 100%
8 | CC(=O)O[C@H]1C(=O)[C@@]2(C)[C@H]([C@H](OC(=O)c3ccccc3)[C@]3(O)C[C@H](OC(=O)[C@H](OC(=O)[C@@H](F)CCN(C)C)[C@@H](NC(=O)c4ccccc4)c4ccccc4)C(C)=C1C3(C)C)[C@]1(OC(C)=O)CO[C@@H]1C[C@@H]2O.CS(=O)(=O)O [Compound C2, 2′-O-[4-N,N-dimethylamino-2(S)-fluorobutyryl]paclitaxel methanesulfonate] | −5.8 | −61 | 51.2 ± 11.2 |  |  |  | Sampling time/Dissociation percent (%) 2 min [3]: 62.8%; Sampling time/Dissociation percent (%) 5 min [3]: 96.5%; Sampling time/Dissociation percent (%) 10 min [3]: 100%; Sampling time/Dissociation percent (%) 2 min [4]: 69.7%; Sampling time/Dissociation percent (%) 5 min [4]: 98.1%; Sampling time/Dissociation percent (%) 10 min [4]: 100%
9 | CO[C@H]1C(=O)[C@]2(C)[C@@H](OC)C[C@H]3OC[C@@]3(OC(C)=O)[C@H]2[C@H](OC(=O)c2ccccc2)[C@]2(O)C[C@H](OC(=O)[C@H](O)[C@@H](NC(=O)OC(C)(C)C)c3ccccc3)C(C)=C1C2(C)C [cabazitaxel, reference compound] |  |  |  |  |  |  | Weight change (%) D6 ([2]; 7 mg/kg): −13.8%; T/C (%) D20 ([2]; 7 mg/kg): −27%; Tumor volume (mm^3) (D20) ([2]; 7 mg/kg): 79.9 ± 24.8 mm^3; Tumor inhibitory percent (%) D20 ([2]; 7 mg/kg): 127%; Tumor volume (mm^3) (D0) ([2]; 7 mg/kg): 111.7 ± 1.8 mm^3
10 | CC(=O)O[C@H]1C(=O)[C@@]2(C)[C@H]([C@H](OC(=O)c3ccccc3)[C@]3(O)C[C@H](OC(=O)[C@H](OC(=O)C(F)CCN(C)C(C)C)[C@@H](NC(=O)c4ccccc4)c4ccccc4)C(C)=C1C3(C)C)[C@]1(OC(C)=O)CO[C@@H]1C[C@@H]2O.Cl (stereo partly drawn) [Compound C20, 2′-O-[4-N-methyl-N-isopropylamino-2(R,S)-fluorobutyryl]paclitaxel hydrochloride] | −10.3 | −38 | 60.4 ± 12.3 | 127.9 ± 11.4 |  |  | Tumor inhibitory percent (%) D22 [1]: 98%
11 | CC(=O)O[C@H]1C(=O)[C@@]2(C)[C@H]([C@H](OC(=O)c3ccccc3)[C@]3(O)C[C@H](OC(=O)[C@H](OC(=O)[C@H](F)CCN(C)C)[C@@H](NC(=O)c4ccccc4)c4ccccc4)C(C)=C1C3(C)C)[C@]1(OC(C)=O)CO[C@@H]1C[C@@H]2O.CS(=O)(=O)O [Compound C1, 2′-O-[4-N,N-dimethylamino-2(R)-fluorobutyryl]paclitaxel methanesulfonate] | −5.9 | −63 |  | 133.6 ± 9.5 |  |  | Sampling time/Dissociation percent (%) 2 min [3]: 64.3%; Sampling time/Dissociation percent (%) 5 min [3]: 97.0%; Sampling time/Dissociation percent (%) 10 min [3]: 100%; Sampling time/Dissociation percent (%) 2 min [4]: 77.2%; Sampling time/Dissociation percent (%) 5 min [4]: 98.4%; Sampling time/Dissociation percent (%) 10 min [4]: 100%
12 | CCN(C)CC[C@@H](F)C(=O)O[C@@H](C(=O)O[C@H]1C[C@@]2(O)[C@@H](OC(=O)c3ccccc3)[C@@H]3[C@]4(OC(C)=O)CO[C@@H]4C[C@H](O)[C@@]3(C)C(=O)[C@H](OC(C)=O)C(=C1C)C2(C)C)[C@@H](NC(=O)c1ccccc1)c1ccccc1.CS(=O)(=O)O [Compound C18, 2′-O-[4-N-methyl-N-ethylamino-2(R)-fluorobutyryl]paclitaxel methanesulfonate] | −7.0 | −53 | 55.7 ± 10.6 | 133.6 ± 9.4 |  |  | 
13 | CC(=O)OC1C(=O)C2(C)C(O)CC3OCC3(OC(C)=O)C2C(OC(=O)c2ccccc2)C2(O)CC(OC(=O)C(OC(=O)C(CCN(C)C)C(F)(F)F)C(NC(=O)c3ccccc3)c3ccccc3)C(C)=C1C2(C)C.Cc1ccc(S(=O)(=O)O)cc1 [Compound C21, 2′-O-[4-N,N-dimethylamino-2(R,S)-2-trifluoromethylbutyryl]paclitaxel p-toluene sulfonate] | −8.9 | −48 | 57.3 ± 11.4 | 134.9 ± 11.4 |  |  | 
